Columns and labels:
NEP [1] = molecular target: T1, NEP (Rattus norvegicus, UniProt P07861); settings: aids in reducing blood pressure; cited from earlier work
T1 construct: thereby aids in reducing blood pressure in the rat; host or cells: rat, in vivo
T1 sequence (P07861 1-750): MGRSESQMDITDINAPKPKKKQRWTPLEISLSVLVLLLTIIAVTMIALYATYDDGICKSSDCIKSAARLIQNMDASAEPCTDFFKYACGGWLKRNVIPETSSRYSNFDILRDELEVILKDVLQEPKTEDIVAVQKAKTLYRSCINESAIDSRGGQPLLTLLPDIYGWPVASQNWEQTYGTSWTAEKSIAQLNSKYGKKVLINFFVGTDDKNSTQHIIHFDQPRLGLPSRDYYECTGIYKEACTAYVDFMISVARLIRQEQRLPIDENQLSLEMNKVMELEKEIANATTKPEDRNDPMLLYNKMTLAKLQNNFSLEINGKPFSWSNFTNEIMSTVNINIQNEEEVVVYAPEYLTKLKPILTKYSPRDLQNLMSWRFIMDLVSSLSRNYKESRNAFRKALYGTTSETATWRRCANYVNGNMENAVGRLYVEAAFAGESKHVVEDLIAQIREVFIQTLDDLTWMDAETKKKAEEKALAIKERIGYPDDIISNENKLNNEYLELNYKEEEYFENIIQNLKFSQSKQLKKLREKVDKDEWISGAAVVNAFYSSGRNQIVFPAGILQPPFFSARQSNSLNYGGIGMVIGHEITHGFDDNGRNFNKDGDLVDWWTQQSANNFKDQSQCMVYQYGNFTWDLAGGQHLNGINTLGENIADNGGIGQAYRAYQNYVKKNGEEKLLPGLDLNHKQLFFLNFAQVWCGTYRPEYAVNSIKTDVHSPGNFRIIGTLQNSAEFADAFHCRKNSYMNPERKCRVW

ACE = molecular target: T2, ACE (Mus musculus, UniProt P09470); assay: In vivo inhibition of ACE in mouse after oral administration ([3H]Trandaloprilate binding); settings: oral 2.6×10^-5 mole/kg, mean of three determinations
T2 construct: from tissue; host or cells: mouse tissue in vivo
T2 sequence (P09470 35-1312): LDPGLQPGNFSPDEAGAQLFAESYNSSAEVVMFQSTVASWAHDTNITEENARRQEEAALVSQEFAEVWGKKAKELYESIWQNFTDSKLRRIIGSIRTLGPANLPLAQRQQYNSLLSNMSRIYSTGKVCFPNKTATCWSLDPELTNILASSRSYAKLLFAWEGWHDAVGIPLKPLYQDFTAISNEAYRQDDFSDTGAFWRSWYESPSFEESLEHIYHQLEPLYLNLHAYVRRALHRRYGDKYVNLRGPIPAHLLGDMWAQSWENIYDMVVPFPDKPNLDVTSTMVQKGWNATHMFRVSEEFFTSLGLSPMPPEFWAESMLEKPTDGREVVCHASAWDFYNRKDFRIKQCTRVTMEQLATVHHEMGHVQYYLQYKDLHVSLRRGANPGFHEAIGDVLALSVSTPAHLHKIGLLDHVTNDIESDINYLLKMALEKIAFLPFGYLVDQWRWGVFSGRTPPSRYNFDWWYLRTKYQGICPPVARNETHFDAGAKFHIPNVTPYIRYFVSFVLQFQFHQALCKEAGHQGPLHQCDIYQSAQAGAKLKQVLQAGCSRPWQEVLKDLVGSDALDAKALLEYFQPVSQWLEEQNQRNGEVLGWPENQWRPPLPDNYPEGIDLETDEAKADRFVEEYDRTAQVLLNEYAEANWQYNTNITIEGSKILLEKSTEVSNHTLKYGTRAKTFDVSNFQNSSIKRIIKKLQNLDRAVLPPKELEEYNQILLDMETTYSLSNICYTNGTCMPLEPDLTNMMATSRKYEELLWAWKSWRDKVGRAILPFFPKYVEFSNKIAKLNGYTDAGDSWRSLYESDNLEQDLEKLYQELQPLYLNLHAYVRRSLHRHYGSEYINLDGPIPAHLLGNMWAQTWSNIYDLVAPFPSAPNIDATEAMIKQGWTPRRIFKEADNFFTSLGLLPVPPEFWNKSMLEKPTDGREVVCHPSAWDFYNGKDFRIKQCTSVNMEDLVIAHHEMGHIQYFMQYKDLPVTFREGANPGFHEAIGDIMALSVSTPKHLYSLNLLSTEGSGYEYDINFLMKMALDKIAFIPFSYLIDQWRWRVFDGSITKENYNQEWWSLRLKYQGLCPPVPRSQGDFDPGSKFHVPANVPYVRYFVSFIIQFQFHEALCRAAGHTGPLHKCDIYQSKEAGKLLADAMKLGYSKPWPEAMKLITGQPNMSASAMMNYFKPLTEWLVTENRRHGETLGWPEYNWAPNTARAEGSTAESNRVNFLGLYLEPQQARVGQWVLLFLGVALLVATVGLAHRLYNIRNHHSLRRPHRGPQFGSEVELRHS
From the text: (§1) [S,S,S]-N-[2-Adamantoylthiomethyl-1-oxo-3-phenylbutyl]alanine, a diastereomeric mixture of N-[2-acetylthiomethyl-1-oxo-3-phenylbutyl]alanine (four diastereomers) and a control solution of saline are orally administered at a concentration of 2.6×10^-5 mole/kg) in mice at t=o.
(§2) The inhibition of NEP in the kidney is expressed as the difference (in %) between specific [^3 H]HACBOGly binding in the absence of inhibitor (controls injected with saline) and in the presence of inhibitor. The inhibition values in Table V are the mean value of three determinations.
The protocol in Example 91 is used also to determine […] inhibition except for the following: the selective tritiated ACE inhibitor is [^3 H]Trandaloprilate (0.5 μCi); and the non-specific binding is determined by the co-administration of [^3 H]Trandaloprilate with 1000 eq. of captopril.

NEP [2] = molecular target: T3, NEP (Mus musculus, UniProt Q61391); assay: In vivo inhibition of NEP in mouse kidney after oral administration ([3H]HACBOGly binding); settings: oral 2.6×10^-5 mole/kg, mean of three determinations
T3 construct: the kidney is rapidly set apart and homogenized at 4° C. in a Tris HCl buffer; from tissue; host or cells: mouse kidney (in vivo, then homogenate)
T3 sequence (Q61391 1-750): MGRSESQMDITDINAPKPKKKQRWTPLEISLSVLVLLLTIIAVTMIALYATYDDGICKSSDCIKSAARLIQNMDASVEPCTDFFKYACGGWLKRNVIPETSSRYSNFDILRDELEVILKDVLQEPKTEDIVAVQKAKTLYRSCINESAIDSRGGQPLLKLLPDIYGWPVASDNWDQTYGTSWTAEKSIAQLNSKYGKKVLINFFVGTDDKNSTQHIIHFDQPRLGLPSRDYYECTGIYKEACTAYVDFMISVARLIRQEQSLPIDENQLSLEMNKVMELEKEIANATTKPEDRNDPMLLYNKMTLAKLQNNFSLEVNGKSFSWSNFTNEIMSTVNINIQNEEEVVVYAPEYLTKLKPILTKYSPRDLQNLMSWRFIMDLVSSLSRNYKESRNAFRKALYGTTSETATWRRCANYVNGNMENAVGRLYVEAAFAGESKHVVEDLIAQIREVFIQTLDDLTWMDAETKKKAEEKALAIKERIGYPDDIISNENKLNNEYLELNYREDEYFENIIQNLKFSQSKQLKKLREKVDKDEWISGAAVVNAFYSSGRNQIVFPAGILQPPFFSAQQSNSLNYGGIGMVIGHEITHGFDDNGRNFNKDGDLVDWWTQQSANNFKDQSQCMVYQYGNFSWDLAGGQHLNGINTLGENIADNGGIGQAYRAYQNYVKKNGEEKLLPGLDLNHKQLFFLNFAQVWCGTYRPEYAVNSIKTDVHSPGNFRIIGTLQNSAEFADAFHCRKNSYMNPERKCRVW
From the text: as §1, §2

Row | % Inhibition ACE (ACE; time 30 min) | % Inhibition ACE (ACE; time 240 min) | % Inhibition NEP (NEP [2]; time 30 min) | % Inhibition NEP (NEP [2]; time 240 min) | Compound | half-life of circulating auricular natriuretic peptide (NEP [1])
1 | – | – | – | – | O=C(O)CNC(=O)C(CS)Cc1ccccc1 (racemic) [Thiorphan, N-(2-mercapto-methyl-3-phenyl-1-oxopropyl)glycine] | capable of augmenting the half-life of circulating auricular natriuretic peptide
2 | 75% | 30% | 85% | 70% | C[C@H](NC(=O)[C@@H](CSC(=O)C12CC3CC(CC(C3)C1)C2)[C@H](C)c1ccccc1)C(=O)O [91(A), [S,S,S]--N-[2-adamantoylthiomethyl-1-oxo-3-phenylbutyl]alanine] | –
3 | 30% | 15% | 65% | 45% | CC(=O)SCC(C(=O)N[C@@H](C)C(=O)O)C(C)c1ccccc1 (stereo partly drawn) [91(B), N-[2-acetylthiomethyl-1-oxo-3-phenylbutyl]alanine] | –
